{
  "source": "ChEMBL document CHEMBL4052747",
  "about": "(Bioorg Med Chem Lett, 2017)",
  "key": {"[1]": {"target": "T1, Kappa-type opioid receptor (Homo sapiens, UniProt P41145)", "T1 sequence (P41145 whole entry)": "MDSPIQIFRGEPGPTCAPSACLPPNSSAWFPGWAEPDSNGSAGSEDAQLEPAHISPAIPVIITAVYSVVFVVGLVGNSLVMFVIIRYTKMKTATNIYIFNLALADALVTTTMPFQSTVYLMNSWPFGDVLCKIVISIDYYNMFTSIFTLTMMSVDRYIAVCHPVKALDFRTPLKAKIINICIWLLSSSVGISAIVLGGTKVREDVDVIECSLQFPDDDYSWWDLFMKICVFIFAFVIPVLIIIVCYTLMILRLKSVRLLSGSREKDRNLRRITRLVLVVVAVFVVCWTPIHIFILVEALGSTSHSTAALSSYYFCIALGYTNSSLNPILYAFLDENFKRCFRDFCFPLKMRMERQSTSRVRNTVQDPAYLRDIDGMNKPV", "assay": "Agonist activity at human kappa opioid receptor expressed in CHO-K1 cells assessed as inhibition of forskolin-induced cAMP accumulation by TR-FRET assay", "format": "functional, cell-based"}, "Mu-type opioid receptor [2]": {"target": "T2, Mu-type opioid receptor (Homo sapiens, UniProt P35372)", "T2 sequence (P35372 whole entry)": "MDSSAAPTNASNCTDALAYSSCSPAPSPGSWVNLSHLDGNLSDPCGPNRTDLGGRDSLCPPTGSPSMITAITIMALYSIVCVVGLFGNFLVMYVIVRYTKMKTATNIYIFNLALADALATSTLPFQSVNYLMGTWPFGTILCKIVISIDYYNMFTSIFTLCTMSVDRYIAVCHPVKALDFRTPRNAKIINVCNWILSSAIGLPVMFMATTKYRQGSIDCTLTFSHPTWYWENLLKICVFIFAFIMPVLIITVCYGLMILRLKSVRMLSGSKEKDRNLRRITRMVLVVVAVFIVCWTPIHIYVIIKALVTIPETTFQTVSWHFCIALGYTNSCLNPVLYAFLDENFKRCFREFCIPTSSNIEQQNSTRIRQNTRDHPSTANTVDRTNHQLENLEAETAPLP", "assay": "Agonist activity at human mu opioid receptor expressed in CHO-dhfr(-) cells assessed as inhibition of forskolin-induced cAMP accumulation by TR-FRET assay", "format": "functional, cell-based"}, "[3]": {"target": "T1, Kappa-type opioid receptor", "assay": "Agonist activity at human kappa opioid receptor"}, "Homo sapiens": {"organism": "Homo sapiens", "assay": "Selectivity for human kappa opioid receptor over human mu opioid receptor"}, "Rattus norvegicus": {"system": "Rattus norvegicus", "assay": "Anti-allodynic activity in rat model of partial sciatic nerve ligation-induced allodynia assessed as effect on withdrawal threshold at 3 and 5 mg/kg, iv dosed 7 days after ligation and measured 30 mins post dose by up-down method with von Frey filaments assay", "format": "functional, organism-based"}, "Mus musculus": {"system": "Mus musculus", "assay": "Anti-pruritic activity in mouse assessed as reduction in substance P-induced scratching behavior at 3 mg/kg, ip dosed 15 mins before substance P injection and measured for 30 mins post substance P challenge by MicroAct based method", "format": "functional, organism-based"}, "Mu-type opioid receptor [4]": {"target": "T2, Mu-type opioid receptor", "assay": "Agonist activity at mu opioid receptor (unknown origin)"}},
  "note": "Counter-ions that a name gives are not always drawn. The source made the active and inactive calls.",
  "data": [
    {"smiles": "CN(C(=O)/C=C/c1cccnc1)[C@@H]1CC[C@@]2(O)[C@H]3[C@@H](O)c4ccc(O)c5c4[C@@]2(CCN3CC2CC2)[C@H]1O5", "values": [
      {"measurement": "EC50", "setting": "[1]", "result": 0.291, "unit": "nM"},
      {"measurement": "Emax", "setting": "[1]", "result": 101, "unit": "%"},
      {"measurement": "EC50", "setting": "Mu-type opioid receptor [2]", "result": 3760, "unit": "nM"},
      {"measurement": "Emax", "setting": "Mu-type opioid receptor [2]", "result": 86, "unit": "%"}
    ]},
    {"smiles": "CN(C(=O)/C=C/c1ccsc1)[C@@H]1CC[C@@]2(O)[C@H]3[C@@H](O)c4ccc(O)c5c4[C@@]2(CCN3CC2CC2)[C@H]1O5", "values": [
      {"measurement": "EC50", "setting": "[1]", "result": 0.028, "unit": "nM"},
      {"measurement": "Emax", "setting": "[1]", "result": 101, "unit": "%"},
      {"measurement": "EC50", "setting": "Mu-type opioid receptor [2]", "result": 110, "unit": "nM"},
      {"measurement": "Emax", "setting": "Mu-type opioid receptor [2]", "result": 96, "unit": "%"}
    ]},
    {"smiles": "CN(C(=O)/C=C/c1ccncc1)[C@@H]1CC[C@@]2(O)[C@H]3[C@@H](O)c4ccc(O)c5c4[C@@]2(CCN3CC2CC2)[C@H]1O5", "values": [
      {"measurement": "EC50", "setting": "[1]", "result": 0.0257, "unit": "nM"},
      {"measurement": "Emax", "setting": "[1]", "result": 99, "unit": "%"},
      {"measurement": "EC50", "setting": "Mu-type opioid receptor [2]", "result": 12100, "unit": "nM"},
      {"measurement": "Emax", "setting": "Mu-type opioid receptor [2]", "result": 62, "unit": "%"}
    ]},
    {"smiles": "CN(C(=O)/C=C/c1cccs1)[C@@H]1CC[C@@]2(O)[C@H]3[C@@H](O)c4ccc(O)c5c4[C@@]2(CCN3CC2CC2)[C@H]1O5", "values": [
      {"measurement": "EC50", "setting": "[1]", "result": 0.00466, "unit": "nM"},
      {"measurement": "Emax", "setting": "[1]", "result": 101, "unit": "%"},
      {"measurement": "EC50", "setting": "Mu-type opioid receptor [2]", "result": 4870, "unit": "nM"},
      {"measurement": "Emax", "setting": "Mu-type opioid receptor [2]", "result": 58, "unit": "%"}
    ]},
    {"smiles": "CN(C(=O)COc1ccccc1)[C@@H]1CC[C@@]2(O)[C@H]3[C@@H](O)c4ccc(O)c5c4[C@@]2(CCN3CC2CC2)[C@H]1O5", "values": [
      {"measurement": "EC50", "setting": "[1]", "result": 5.04, "unit": "nM"},
      {"measurement": "Emax", "setting": "[1]", "result": 97, "unit": "%"},
      {"measurement": "EC50", "setting": "Mu-type opioid receptor [2]", "result": "> 30000", "unit": "nM"},
      {"measurement": "Emax", "setting": "Mu-type opioid receptor [2]", "result": 17, "unit": "%"}
    ]},
    {"smiles": "CN(C(=O)/C=C/c1ccc(Cl)cc1)[C@@H]1CC[C@@]2(O)[C@H]3[C@@H](O)c4ccc(O)c5c4[C@@]2(CCN3CC2CC2)[C@H]1O5", "values": [
      {"measurement": "EC50", "setting": "[1]", "result": 0.0288, "unit": "nM"},
      {"measurement": "Emax", "setting": "[1]", "result": 99, "unit": "%"},
      {"measurement": "EC50", "setting": "Mu-type opioid receptor [2]", "result": 48.8, "unit": "nM"},
      {"measurement": "Emax", "setting": "Mu-type opioid receptor [2]", "result": 92, "unit": "%"}
    ]},
    {"smiles": "CN(C(=O)/C=C/c1ccccn1)[C@@H]1CC[C@@]2(O)[C@H]3[C@@H](O)c4ccc(O)c5c4[C@@]2(CCN3CC2CC2)[C@H]1O5", "values": [
      {"measurement": "EC50", "setting": "[1]", "result": 0.0283, "unit": "nM"},
      {"measurement": "Emax", "setting": "[1]", "result": 99, "unit": "%"},
      {"measurement": "EC50", "setting": "Mu-type opioid receptor [2]", "result": 2880, "unit": "nM"},
      {"measurement": "Emax", "setting": "Mu-type opioid receptor [2]", "result": 89, "unit": "%"}
    ]},
    {"smiles": "CN(C(=O)CCCc1ccccc1)[C@@H]1CC[C@@]2(O)[C@H]3[C@@H](O)c4ccc(O)c5c4[C@@]2(CCN3CC2CC2)[C@H]1O5", "values": [
      {"measurement": "EC50", "setting": "[1]", "result": 7.51, "unit": "nM"},
      {"measurement": "Emax", "setting": "[1]", "result": 96, "unit": "%"},
      {"measurement": "EC50", "setting": "Mu-type opioid receptor [2]", "result": 12900, "unit": "nM"},
      {"measurement": "Emax", "setting": "Mu-type opioid receptor [2]", "result": 99, "unit": "%"}
    ]},
    {"smiles": "CN(C(=O)/C=C/c1ccoc1)[C@@H]1CC[C@@]2(O)[C@H]3[C@@H](O)c4ccc(O)c5c4[C@@]2(CCN3CC2CC2)[C@H]1O5", "values": [
      {"measurement": "EC50", "setting": "[3]", "result": 0.025, "unit": "nM"},
      {"measurement": "Selectivity ratio", "setting": "Homo sapiens", "result": 44000},
      {"measurement": "EC50", "setting": "[1]", "result": 0.025, "unit": "nM"},
      {"measurement": "Emax", "setting": "[1]", "result": 99, "unit": "%"},
      {"measurement": "EC50", "setting": "Mu-type opioid receptor [2]", "result": 1100, "unit": "nM"},
      {"measurement": "Emax", "setting": "Mu-type opioid receptor [2]", "result": 88, "unit": "%"},
      {"measurement": "Activity", "setting": "Rattus norvegicus", "result": "Active"},
      {"measurement": "Activity", "setting": "Mus musculus", "result": "Active"}
    ]},
    {"smiles": "CN(C(=O)c1ccccc1)[C@@H]1CC[C@@]2(O)[C@H]3[C@@H](O)c4ccc(O)c5c4[C@@]2(CCN3CC2CC2)[C@H]1O5", "values": [
      {"measurement": "EC50", "setting": "[1]", "result": "> 100", "unit": "nM"},
      {"measurement": "Emax", "setting": "[1]", "result": 23, "unit": "%"},
      {"measurement": "EC50", "setting": "Mu-type opioid receptor [2]", "result": "> 30000", "unit": "nM"},
      {"measurement": "Emax", "setting": "Mu-type opioid receptor [2]", "result": 44, "unit": "%"}
    ]},
    {"smiles": "CN(C(=O)/C=C/c1ccoc1)[C@@H]1CC[C@@]2(O)[C@H]3Cc4ccc(O)c5c4[C@@]2(CCN3CC2CC2)[C@H]1O5", "note": "[NALFURAFINE HYDROCHLORIDE]", "values": [
      {"measurement": "EC50", "setting": "Mu-type opioid receptor [4]", "result": 1.7, "unit": "nM"}
    ]},
    {"smiles": "CN(C(=O)CCc1ccccc1)[C@@H]1CC[C@@]2(O)[C@H]3[C@@H](O)c4ccc(O)c5c4[C@@]2(CCN3CC2CC2)[C@H]1O5", "values": [
      {"measurement": "EC50", "setting": "[1]", "result": 1.04, "unit": "nM"},
      {"measurement": "Emax", "setting": "[1]", "result": 100, "unit": "%"},
      {"measurement": "EC50", "setting": "Mu-type opioid receptor [2]", "result": 18300, "unit": "nM"},
      {"measurement": "Emax", "setting": "Mu-type opioid receptor [2]", "result": 57, "unit": "%"}
    ]},
    {"smiles": "CN(C(=O)Cc1ccccc1)[C@@H]1CC[C@@]2(O)[C@H]3[C@@H](O)c4ccc(O)c5c4[C@@]2(CCN3CC2CC2)[C@H]1O5", "values": [
      {"measurement": "EC50", "setting": "[1]", "result": "> 100", "unit": "nM"},
      {"measurement": "Emax", "setting": "[1]", "result": 18, "unit": "%"},
      {"measurement": "EC50", "setting": "Mu-type opioid receptor [2]", "result": "> 30000", "unit": "nM"},
      {"measurement": "Emax", "setting": "Mu-type opioid receptor [2]", "result": 43, "unit": "%"}
    ]},
    {"smiles": "CN(C(=O)C#Cc1ccccc1)[C@@H]1CC[C@@]2(O)[C@H]3[C@@H](O)c4ccc(O)c5c4[C@@]2(CCN3CC2CC2)[C@H]1O5", "values": [
      {"measurement": "EC50", "setting": "[1]", "result": 0.0799, "unit": "nM"},
      {"measurement": "Emax", "setting": "[1]", "result": 102, "unit": "%"},
      {"measurement": "EC50", "setting": "Mu-type opioid receptor [2]", "result": 904, "unit": "nM"},
      {"measurement": "Emax", "setting": "Mu-type opioid receptor [2]", "result": 95, "unit": "%"}
    ]},
    {"smiles": "CN(C(=O)/C=C/c1ccco1)[C@@H]1CC[C@@]2(O)[C@H]3[C@@H](O)c4ccc(O)c5c4[C@@]2(CCN3CC2CC2)[C@H]1O5", "values": [
      {"measurement": "EC50", "setting": "[1]", "result": 0.122, "unit": "nM"},
      {"measurement": "Emax", "setting": "[1]", "result": 102, "unit": "%"},
      {"measurement": "EC50", "setting": "Mu-type opioid receptor [2]", "result": 14200, "unit": "nM"},
      {"measurement": "Emax", "setting": "Mu-type opioid receptor [2]", "result": 55, "unit": "%"}
    ]},
    {"smiles": "Cc1ccc(/C=C/C(=O)N(C)[C@@H]2CC[C@@]3(O)[C@H]4[C@@H](O)c5ccc(O)c6c5[C@@]3(CCN4CC3CC3)[C@H]2O6)cc1", "values": [
      {"measurement": "EC50", "setting": "[1]", "result": 0.0494, "unit": "nM"},
      {"measurement": "Emax", "setting": "[1]", "result": 101, "unit": "%"},
      {"measurement": "EC50", "setting": "Mu-type opioid receptor [2]", "result": 308, "unit": "nM"},
      {"measurement": "Emax", "setting": "Mu-type opioid receptor [2]", "result": 72, "unit": "%"}
    ]},
    {"smiles": "CN(C(=O)/C=C/c1ccccc1)[C@@H]1CC[C@@]2(O)[C@H]3[C@@H](O)c4ccc(O)c5c4[C@@]2(CCN3CC2CC2)[C@H]1O5", "values": [
      {"measurement": "EC50", "setting": "[1]", "result": 0.0222, "unit": "nM"},
      {"measurement": "Emax", "setting": "[1]", "result": 101, "unit": "%"},
      {"measurement": "EC50", "setting": "Mu-type opioid receptor [2]", "result": 209, "unit": "nM"},
      {"measurement": "Emax", "setting": "Mu-type opioid receptor [2]", "result": 107, "unit": "%"}
    ]},
    {"smiles": "CN(C(=O)/C=C/c1ccc(O)cc1)[C@@H]1CC[C@@]2(O)[C@H]3[C@@H](O)c4ccc(O)c5c4[C@@]2(CCN3CC2CC2)[C@H]1O5", "values": [
      {"measurement": "EC50", "setting": "[1]", "result": 0.0953, "unit": "nM"},
      {"measurement": "Emax", "setting": "[1]", "result": 98, "unit": "%"},
      {"measurement": "EC50", "setting": "Mu-type opioid receptor [2]", "result": "> 30000", "unit": "nM"},
      {"measurement": "Emax", "setting": "Mu-type opioid receptor [2]", "result": 49, "unit": "%"}
    ]}
  ]
}
